Measured values: the supplement of paper PMC11451515

Assays:
Conditions in all cases: 48 h
SEM cells [1] = assay: cell viability relative to DMSO control; higher = less cytotoxic
In short: (§1)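 NOMO1 or SEM cells were plated at 500 cells/well and P12-Ichikawa cells at 1000 cells/well in 1536-well plates (5 μl), after each leukemia line had been adapted for at least four passages in each medium. Pin dosing delivered library compounds in DMSO at 11 threefold concentrations, 47 μM to 0.79 nM. CellTiter-Glo One luminescence was read after 48 h at 37°C. Viability is reported as a per-plate percentage of DMSO wells, with cell-free wells as background.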

SEM cells [2] = assay: AUC of viability dose-response curve (% viability x log10 dose units); higher = less sensitive
In short: (§2)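 Medium-adapted leukemia cells in 1536-well plates, at 500 or 1000 cells/well, were incubated for 48 h at 37°C with library compounds in DMSO at 11 threefold doses from 47 μM to 0.79 nM. CellTiter-Glo One luminescence normalised per plate to DMSO and cell-free wells was fitted with a four-parameter log-logistic model over log10 doses. Area under the curve was integrated from this fit by trapezoidal rule, with curves beyond full viability scaled and failed quality-control curves removed.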

NOMO1 [3] = assay: as above
In short: as §2

P12-Ichikawa [4] = assay: as above
In short: as §2

NOMO1 [5] = assay: cell viability relative to DMSO control; higher = less cytotoxic
In short: as §1

P12-Ichikawa [6] = assay: as above
In short: as §1

C[C@H]1CN(C[C@@H](C)N1)C2=C(F)C3=C(C(=C2F)N)C(=O)\C(=C/N3C4CC4)C(O)=O
cell viability [%], SEM cells [1]
Conditions	HPLM + 10% dialyzed FBS	RPMI 5 mM glucose + 10% dialyzed FBS
0.000781 µM	108	119
0.00234 µM	112	122
0.00702 µM	130	134
0.0211 µM	122	114
0.0632 µM	109	109
0.19 µM	115	124
0.569 µM	107	118
1.71 µM	91.4	95.3
5.12 µM	95.9	96.3
15.4 µM	86.4	88.7
46.1 µM	60.1	56.9

AUC of viability dose-response curve
Conditions	NOMO1 [3]	P12-Ichikawa [4]	SEM cells [2]
HPLM + 10% dialyzed FBS	422	448	424
RPMI 5 mM glucose + 10% FBS	466	441	423
RPMI 5 mM glucose + 10% dialyzed FBS	446	430	425

Clc1ccc(C(Cn2ccnc2)OCc2ccsc2Cl)c(Cl)c1 (stereo not drawn)
cell viability [%]
Conditions	HPLM + 10% dialyzed FBS	RPMI 5 mM glucose + 10% FBS	RPMI 5 mM glucose + 10% dialyzed FBS
NOMO1 [5], 0.000781 µM	102	89.7	88
NOMO1 [5], 0.00234 µM	127	106	113
NOMO1 [5], 0.00702 µM	114	119	112
NOMO1 [5], 0.0211 µM	116	102	129
NOMO1 [5], 0.0632 µM	103	110	99
NOMO1 [5], 0.19 µM	98.8	102	122
NOMO1 [5], 0.569 µM	108	119	118
NOMO1 [5], 1.71 µM	113	105	113
NOMO1 [5], 5.12 µM	134	96.6	96.3
NOMO1 [5], 15.4 µM	117	111	100
NOMO1 [5], 46.1 µM	80.6	94.2	73.5
SEM cells [1], 0.000781 µM	67.6	76.4	69.3
SEM cells [1], 0.00234 µM	98.8	95.1	110
SEM cells [1], 0.00702 µM	107	114	110
SEM cells [1], 0.0211 µM	93.1	105	117
SEM cells [1], 0.0632 µM	114	132	128
SEM cells [1], 0.19 µM	110	121	124
SEM cells [1], 0.569 µM	90.4	100	101
SEM cells [1], 1.71 µM	111	122	109
SEM cells [1], 5.12 µM	111	110	118
SEM cells [1], 15.4 µM	114	112	105
SEM cells [1], 46.1 µM	35.7	65.6	55.9

AUC of viability dose-response curve
Conditions	NOMO1 [3]	P12-Ichikawa [4]	SEM cells [2]
HPLM + 10% dialyzed FBS	470	467	456
RPMI 5 mM glucose + 10% FBS	476	461	467
RPMI 5 mM glucose + 10% dialyzed FBS	457	464	463

CCN(CC)Cc1ccc2cc(COC(=O)Nc3ccc(C(=O)NO)cc3)ccc2c1
SEM cells [1], HPLM + 10% dialyzed FBS
Conditions	cell viability [%]
0.000781 µM	108
0.00234 µM	121
0.00702 µM	127
0.0211 µM	138
0.0632 µM	129
0.19 µM	138
0.569 µM	118
1.71 µM	59.1
5.12 µM	3.07
15.4 µM	2.21
46.1 µM	3.97

AUC of viability dose-response curve
Conditions	NOMO1 [3]	P12-Ichikawa [4]	SEM cells [2]
HPLM + 10% dialyzed FBS	362	349	333
RPMI 5 mM glucose + 10% FBS	372	347	345
RPMI 5 mM glucose + 10% dialyzed FBS	370	352	339

C=CC[N+]1([C@H]2C[C@H]3[C@@H]4CC[C@H]5C[C@H](O)[C@@H](N6CCOCC6)C[C@]5(C)[C@H]4CC[C@]3(C)[C@H]2OC(C)=O)CCCC1
SEM cells [1], HPLM + 10% dialyzed FBS
Conditions	cell viability [%]
0.000781 µM	130
0.00234 µM	116
0.00702 µM	119
0.0211 µM	125
0.0632 µM	114
0.19 µM	131
0.569 µM	124
1.71 µM	127
5.12 µM	119
15.4 µM	113
46.1 µM	113

AUC of viability dose-response curve
Conditions	NOMO1 [3]	P12-Ichikawa [4]	SEM cells [2]
HPLM + 10% dialyzed FBS	442	457	462
RPMI 5 mM glucose + 10% FBS	454	455	464
RPMI 5 mM glucose + 10% dialyzed FBS	455	462	465

CCCCc1oc2ccccc2c1C(=O)c1cc(I)c(OCCN(CC)CC)c(I)c1
cell viability [%]
Conditions	HPLM + 10% dialyzed FBS	RPMI 5 mM glucose + 10% FBS	RPMI 5 mM glucose + 10% dialyzed FBS
P12-Ichikawa [6], 0.000781 µM	114	–	106
P12-Ichikawa [6], 0.00234 µM	114	–	114
P12-Ichikawa [6], 0.00702 µM	113	–	115
P12-Ichikawa [6], 0.0211 µM	109	–	114
P12-Ichikawa [6], 0.0632 µM	115	–	111
P12-Ichikawa [6], 0.19 µM	102	–	107
P12-Ichikawa [6], 0.569 µM	110	–	116
P12-Ichikawa [6], 1.71 µM	104	–	106
P12-Ichikawa [6], 5.12 µM	104	–	103
P12-Ichikawa [6], 15.4 µM	104	–	103
P12-Ichikawa [6], 46.1 µM	91.1	–	94.5
SEM cells [1], 0.000781 µM	–	108	–
SEM cells [1], 0.00234 µM	–	116	–
SEM cells [1], 0.00702 µM	–	132	–
SEM cells [1], 0.0211 µM	–	136	–
SEM cells [1], 0.0632 µM	–	115	–
SEM cells [1], 0.19 µM	–	113	–
SEM cells [1], 0.569 µM	–	136	–
SEM cells [1], 1.71 µM	–	116	–
SEM cells [1], 5.12 µM	–	119	–
SEM cells [1], 15.4 µM	–	107	–
SEM cells [1], 46.1 µM	–	97.6	–

AUC of viability dose-response curve
Conditions	NOMO1 [3]	P12-Ichikawa [4]	SEM cells [2]
HPLM + 10% dialyzed FBS	442	451	458
RPMI 5 mM glucose + 10% FBS	450	448	465
RPMI 5 mM glucose + 10% dialyzed FBS	457	463	454

CC(CCc1ccc(O)cc1)NCCc1ccc(O)c(O)c1 (stereo not drawn)
SEM cells [1], HPLM + 10% dialyzed FBS
Conditions	cell viability [%]
0.000781 µM	117
0.00234 µM	113
0.00702 µM	138
0.0211 µM	145
0.0632 µM	133
0.19 µM	141
0.569 µM	132
1.71 µM	128
5.12 µM	114
15.4 µM	90.5
46.1 µM	19.8

AUC of viability dose-response curve
Conditions	NOMO1 [3]	P12-Ichikawa [4]	SEM cells [2]
HPLM + 10% dialyzed FBS	463	441	436
RPMI 5 mM glucose + 10% FBS	461	450	415
RPMI 5 mM glucose + 10% dialyzed FBS	452	453	439
